The values that follow come from patent US20240336627A1, “NOVEL COMPOUNDS FOR THE DIAGNOSIS OF TDP-43 PROTEINOPATHIES” (AC IMMUNE SA, priority 2021, published 2024).

In the assay the target is T1, Human brain derived TDP-43 aggregates (Homo sapiens, UniProt Q13148).
T1 construct: A sample of brain tissue (frontal or temporal cortex) was homogenized; from tissue; host or cells: sarkosyl-insoluble fraction of human FTD brain (frontal or temporal cortex)
The assay can be described thus: Micro-radiobinding competition assay on human FTD sarkosyl-insoluble brain extracts. Format: binding. To be noted: radioligand [3H]-Compound 52 (75 nM); for Human brain derived TDP-43 aggregates Mean % competition at 250 nM: 250 nM test compound; for Human brain derived TDP-43 aggregates Mean % competition at 2 μM: 2 μM test compound; for Ki: 0.24 nM to 2 μM test compound. How it is done: Human brain extracts were prepared as described in Laferriere et al., 2019, Nature Neurosc. A sample of brain tissue (frontal or temporal cortex) was homogenized at 1:4 (w/v) ratio in the homogenization-solubilization (HS) buffer at 4° C. using tissue homogenizer (Precellys) with CKmix homogenization tubes. The following sequence was used for homogenization: 3 cycles of 30 seconds at 5000 rpm (with 15 seconds pause between each cycle). Homogenized samples were aliquoted and stored at −80° C. in 1.5 mL low protein binding tubes.
Brain homogenates were thawed on ice and resuspended in HS buffer to obtain a final concentration of 2% sarkosyl, 1 unit/μL Benzonase and 1 mM MgCl2. The samples were then incubated at 37° C. under constant shaking at 600 rpm on a thermomixer for 45 minutes (min). The supernatants were collected in a new tube (sarkosyl-soluble fraction, S1). The pellet was resuspended in 1000 μL of myelin floatation buffer and centrifuged at 20,000 g for 60 min at 4° C. The supernatant was carefully removed to remove all the floating lipids. This step was repeated if all the lipids could not be removed in a single step. The pellet was subsequently washed with Phosphate-Buffered Saline (PBS) and centrifuged for 30 min at 20,000 g at 4° C. The final pellet was resuspended in 200 μL PBS and stored at −80° C. (sarkosyl-insoluble fraction). The samples were analyzed by immunoblotting in denaturing conditions.
Human FTD sarkosyl-insoluble brain extracts were spotted onto microarray slides. The slides were incubated with [^3H]-Compound 52 or [^3H]-Compound 16 ligands at 75 nM or 40 nM, respectively, and the example compounds (non-radiolabelled) at 2 μM and 250 nM. In some cases, the non-radiolabelled example compounds were further assessed for a range of different concentrations, varying from 0.24 nM to 2 μM for determination of the inhibition constant (Ki). After incubation, slides were washed and scanned by a real-time autoradiography system (BeaQuant, ai4R). Quantification of the signal was performed by using the Beamage image analysis software (ai4R). Non-specific signal was determined with an excess of non-radiolabelled compound 52 or compound 16 (2 μM) and specific binding was calculated by subtracting the non-specific signal from the total signal. Competition was calculated as percent, where 0% was defined as the specific binding in the presence of vehicle and 100% as the values obtained in the presence of excess of the non-radiolabelled compound 52 or compound 16. Ki values were calculated in GraphPad Prism7 by applying a nonlinear regression curve fit using a one site, specific binding model. Measurements were performed with at least two technical replicates in the two-concentration competition experiment and with one technical replicate in the experiments including a range of concentrations. For compounds tested in more than one experiment, the mean of the replicates or Ki values in independent experiments is reported.

T1 sequence (Q13148 whole entry): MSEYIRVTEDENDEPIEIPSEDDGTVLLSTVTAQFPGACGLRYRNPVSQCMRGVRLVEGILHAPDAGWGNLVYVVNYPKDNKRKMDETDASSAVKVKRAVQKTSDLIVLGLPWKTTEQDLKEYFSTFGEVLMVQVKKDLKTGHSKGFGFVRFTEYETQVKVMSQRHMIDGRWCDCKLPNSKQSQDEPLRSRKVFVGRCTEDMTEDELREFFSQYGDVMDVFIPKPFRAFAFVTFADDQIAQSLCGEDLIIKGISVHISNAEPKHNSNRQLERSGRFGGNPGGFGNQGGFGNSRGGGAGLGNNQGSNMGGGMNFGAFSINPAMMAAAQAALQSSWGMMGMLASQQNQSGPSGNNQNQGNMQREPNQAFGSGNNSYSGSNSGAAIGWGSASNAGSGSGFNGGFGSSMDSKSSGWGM

Take `N#Cc1cc(N2CCc3nc(-c4ccc(N5CC[C@H](F)C5)nc4)sc3C2=O)ccc1N` [Example 23]: the “Human brain derived TDP-43 aggregates Mean % competition at 250 nM” value was 35.5ª %; the “Human brain derived TDP-43 aggregates Mean % competition at 2 μM” value is given as 76.1ª %; the affinity, expressed as Ki, was 100 nM.
Take `Nc1cccc(N2CCc3nc(-c4ccc(N5CC[C@@H](F)C5)nc4)sc3C2=O)c1F` [Example 24]: the “Human brain derived TDP-43 aggregates Mean % competition at 250 nM” value is on record as 56.9ª %, the “Human brain derived TDP-43 aggregates Mean % competition at 2 μM” value was 84.1ª % and affinity was put at a Ki of 110 nM.
Take `Nc1cc(N2CCc3nc(-c4ccc(N5CC[C@@H](F)C5)nc4)sc3C2=O)ccc1F` [Example 25]: the “Human brain derived TDP-43 aggregates Mean % competition at 250 nM” value is listed as 66.6ª % and the “Human brain derived TDP-43 aggregates Mean % competition at 2 μM” value is reported as 83.0ª %.
For the compound `Nc1cc(N2CCc3nc(-c4ccc(N5CC[C@H](F)C5)nc4)sc3C2=O)ccc1F` [Example 26, (S)-5-(3-amino-4-fluorophenyl)-2-(6-(3-fluoropyrrolidin-1-yl)pyridin-3-yl)-6,7-dihydrothiazolo[5,4-c]pyridin-4(5H)-one], the “Human brain derived TDP-43 aggregates Mean % competition at 250 nM” value is recorded as 40.8ª %, the “Human brain derived TDP-43 aggregates Mean % competition at 2 μM” value is reported as 70.8ª % and the inhibition constant (Ki) was 9.9 nM.
For `Cn1cc(N2CCc3nc(-c4ccc(N5CC[C@@H](F)C5)cc4)sc3C2=O)cn1` [Example 27], the “Human brain derived TDP-43 aggregates Mean % competition at 250 nM” value is reported as 54.3ª %, the “Human brain derived TDP-43 aggregates Mean % competition at 2 μM” value was 80.2ª % and the Ki is 128 nM.
For `Cn1cc(N2CCc3nc(-c4ccc(N5CC[C@H](F)C5)cc4)sc3C2=O)cn1` [Example 28], the “Human brain derived TDP-43 aggregates Mean % competition at 250 nM” value is 56.5ª %, the “Human brain derived TDP-43 aggregates Mean % competition at 2 μM” value is reported as 79.7ª % and the inhibitory constant (Ki) was found to be 111 nM.
As to `N#Cc1cc(N2CCc3nc(-c4ccc(N5CCC[C@@H](F)C5)nc4)sc3C2=O)ccc1N` [Example 29], the “Human brain derived TDP-43 aggregates Mean % competition at 250 nM” value was 42.6ª %, the “Human brain derived TDP-43 aggregates Mean % competition at 2 μM” value was 73.9ª % and the inhibition constant Ki was 27.7 nM.
Take `N#Cc1ccc(N2CCc3nc(-c4ccc(N5CCC[C@@H](F)C5)nc4)sc3C2=O)cc1N` [Example 30]: the “Human brain derived TDP-43 aggregates Mean % competition at 250 nM” value was 55.9ª %, the “Human brain derived TDP-43 aggregates Mean % competition at 2 μM” value was 75.7ª % and the Ki was determined as 86.6 nM.
On the same counts, the results for `N#Cc1ccc(N2CCc3nc(-c4ccc(N5CCC[C@H](F)C5)nc4)sc3C2=O)cc1N` [Example 31] are 67.6ª %, 79.7ª % and 101 nM.
Turning to `N#Cc1cc(N2CCc3nc(-c4ccc(N5CCC[C@H](F)C5)nc4)sc3C2=O)ccc1N` [Example 32], the “Human brain derived TDP-43 aggregates Mean % competition at 250 nM” value is 44.0ª % and the “Human brain derived TDP-43 aggregates Mean % competition at 2 μM” value is given as 80.9ª %.
For the compound `Nc1cc(N2CCc3nc(-c4ccc(N5CCC[C@H](F)C5)nc4)sc3C2=O)ccc1F` [Example 33], the “Human brain derived TDP-43 aggregates Mean % competition at 250 nM” value is given as 52.1ª %; the “Human brain derived TDP-43 aggregates Mean % competition at 2 μM” value is 81.0ª %; the affinity, expressed as Ki, was 144 nM.
In the case of `Nc1cc(N2CCc3nc(-c4ccc(N5CCCC5)cn4)sc3C2=O)ccc1F` [Example 34], the “Human brain derived TDP-43 aggregates Mean % competition at 250 nM” value is 72.8ª % and the “Human brain derived TDP-43 aggregates Mean % competition at 2 μM” value is reported as 67.9ª %.
For `Nc1cc(N2CCc3nc(-c4cnc(N5CC[C@@H](F)C5)cn4)sc3C2=O)ccc1F` [Example 35] the same measures were 53.0ª % and 74.6ª %.
In the case of `Nc1cc(N2CCc3nc(-c4cnc(N5CCC[C@H](F)C5)cn4)sc3C2=O)ccc1F` [Example 36], the “Human brain derived TDP-43 aggregates Mean % competition at 250 nM” value is on record as 51.0ª %.
In the case of `Nc1cc(N2CCc3nc(-c4cnc(N5CC[C@H](F)C5)cn4)sc3C2=O)ccc1F` [Example 37], the “Human brain derived TDP-43 aggregates Mean % competition at 250 nM” value is 54.3ª %, the “Human brain derived TDP-43 aggregates Mean % competition at 2 μM” value is recorded as 74.9ª % and the affinity corresponds to a Ki of 79.9 nM.
